Laboratory results published in ChEMBL document CHEMBL6087414, “Discovery of 4-(4-(3-(1-(2-(piperidin-1-yl)ethyl)-1H-benzo[d]imidazole-2-yl)isoxazol-5-yl)phenyl)morpholine as a novel c-Myc inhibitor against lung cancer in vitro and in vivo” (Eur J Med Chem, 2025).
Activity calls are given as the source filed them. The rule behind the calls is not given here.

Experiments:
A549 [1] = experiment: Induction of apoptosis in human A549 cells assessed as increase in BAD level at 2.5 to 10 uM incubated for 48 hrs by Western blot analysis; assay type: functional, cell-based; settings: dose 2.5-10 µM
[2] = target: c-Myc/c-Max (Homo sapiens) (UniProt P01106+P61244); experiment: Disruption of c-Myc-Max interaction in human A549 cells assessed as decrease in at 10 uM incubated for 48 hrs by immunoprecipitation method; assay type: cell-based
[3] = system: Lewis lung carcinoma cell line; experiment: Antitumor activity against mouse Lewis lung carcinoma cells allografted in C57BL/6 mouse at 40 mg/kg, ip administered every two days for 28 days relative to control; assay type: functional; settings: 672 h, time 28 day, read-out: TGI
[4] = system: Lewis lung carcinoma cell line; experiment: Antitumor activity against mouse Lewis lung carcinoma cells allografted in C57BL/6 mouse at 20 mg/kg, ip administered every two days for 28 days relative to control; assay type: functional; settings: 672 h, time 28 day, read-out: TGI
A549 [5] = experiment: Effect on c-Myc mRNA expression in human A549 cells at 10 uM by Q-PCR analysis; assay type: functional, cell-based
A549 [6] = experiment: Induction of apoptosis in human A549 cells assessed as decrease in Bcl-2 level at 2.5 to 10 uM incubated for 48 hrs by Western blot analysis; assay type: functional, cell-based; settings: dose 2.5-10 µM
A549 [7] = experiment: Induction of apoptosis in human A549 cells assessed as early apoptotic cells at 10 uM incubated for 48 hrs by Annexin V-FITC/PI staining based flow cytometry (reference value: 5.02 %); assay type: functional
[8] = Toxicity in C57BL/6 mouse allografted with mouse Lewis lung carcinoma cells assessed as pathological damage in liver at 20 mg/kg, ip administered every two days for 28 days by H and E staining based analysis; assay type: organism-based; settings: in vivo, 672 h, time 28 day
A549 [9] = experiment: Induction of apoptosis in human A549 cells assessed as late apoptotic cells at 2.5 uM incubated for 48 hrs by Annexin V-FITC/PI staining based flow cytometry (reference value: 5.79 %); assay type: functional
[10] = Toxicity in C57BL/6 mouse allografted with mouse Lewis lung carcinoma cells assessed as discernible signs of toxicity at 20 to 40 mg/kg, ip administered every two days for 28 days; assay type: organism-based; settings: in vivo, 672 h, dose 20-40 mg/kg, time 28 day
A549 [11] = experiment: Induction of apoptosis in human A549 cells assessed as viable cells at 5 uM incubated for 48 hrs by Annexin V-FITC/PI staining based flow cytometry (reference value: 87.8 %); assay type: functional; settings: read-out: Activity
A549 [12] = experiment: Induction of apoptosis in human A549 cells assessed as increase in BAX level at 2.5 to 10 uM incubated for 48 hrs by Western blot analysis; assay type: functional, cell-based; settings: dose 2.5-10 µM
[13] = Toxicity in C57BL/6 mouse allografted with mouse Lewis lung carcinoma cells assessed as pathological damage in heart at 20 mg/kg, ip administered every two days for 28 days by H and E staining based analysis; assay type: organism-based; settings: in vivo, 672 h, time 28 day
[14] = target: Myc proto-oncogene protein (Homo sapiens) (UniProt P01106); experiment: Inhibition of c-Myc in human A549 cells by Western blot analysis; assay type: cell-based; settings: dose <= 10.0 µM
[15] = target: Myc proto-oncogene protein (Homo sapiens) (UniProt P01106); experiment: Inhibition of c-Myc in human A549 cells at 10 uM incubated for 24 hrs in presence of MG132 by Western blot analysis; assay type: cell-based
A549 [16] = experiment: Induction of apoptosis in human A549 cells assessed as early apoptotic cells at 2.5 uM incubated for 48 hrs by Annexin V-FITC/PI staining based flow cytometry (reference value: 5.02 %); assay type: functional
[17] = system: Lewis lung carcinoma cell line; experiment: Antitumor activity against mouse Lewis lung carcinoma cells allografted in C57BL/6 mouse assessed as inhibition of tumor growth administered intraperitoneally every two days for 28 days; assay type: functional, cell-based; settings: dose 20-40 mg/kg, route ip, time 28.0 day
A549 [18] = experiment: Induction of apoptosis in human A549 cells assessed as necrotic cells at 2.5 uM incubated for 48 hrs by Annexin V-FITC/PI staining based flow cytometry (reference value: 1.41 %); assay type: functional
A549 [19] = experiment: Induction of apoptosis in human A549 cells at 5 to 15 uM incubated for 48 hrs by Annexin V-FITC/PI staining based flow cytometry relative to control; assay type: functional; settings: dose 5-15 µM
A549 [20] = experiment: Cytotoxicity against human A549 cells assessed as inhibition of cell viability incubated for 48 hrs by CCK8 assay; assay type: functional, cell-based; settings: A549, 48 h
A549 [21] = experiment: Induction of apoptosis in human A549 cells assessed as viable cells at 2.5 uM incubated for 48 hrs by Annexin V-FITC/PI staining based flow cytometry (reference value: 87.8 %); assay type: functional; settings: read-out: Activity
A549 [22] = experiment: Induction of apoptosis in human A549 cells assessed as viable cells at 10 uM incubated for 48 hrs by Annexin V-FITC/PI staining based flow cytometry (reference value: 87.8 %); assay type: functional; settings: read-out: Activity
[23] = Cytotoxicity against human BEAS-2B cells assessed as cell viability upto 20 uM incubated for 48 hrs by CCK8 assay relative to control; assay type: toxicity, cell-based; settings: read-out: Activity
A549 [24] = experiment: Induction of apoptosis in human A549 cells assessed as activation of caspase-9 cleavage at 2.5 to 10 uM incubated for 48 hrs by Western blot analysis; assay type: functional, cell-based; settings: dose 2.5-10 µM
A549 [25] = experiment: Induction of apoptosis in human A549 cells incubated for 48 hrs by Annexin V-FITC/PI staining based flow cytometry; assay type: functional, cell-based; settings: dose 5-15 µM
A549 [26] = experiment: Induction of apoptosis in human A549 cells assessed as late apoptotic cells at 10 uM incubated for 48 hrs by Annexin V-FITC/PI staining based flow cytometry (reference value: 5.79 %); assay type: functional
[27] = Toxicity in C57BL/6 mouse allografted with mouse Lewis lung carcinoma cells assessed as body weight loss at 20 to 40 mg/kg, ip administered every two days for 28 days; assay type: organism-based; settings: in vivo, 672 h, dose 20-40 mg/kg, time 28 day
[28] = Toxicity in C57BL/6 mouse allografted with mouse Lewis lung carcinoma cells assessed as pathological damage in spleen at 20 mg/kg, ip administered every two days for 28 days by H and E staining based analysis; assay type: organism-based; settings: in vivo, 672 h, time 28 day
A549 [29] = experiment: Induction of apoptosis in human A549 cells assessed as early apoptotic cells at 5 uM incubated for 48 hrs by Annexin V-FITC/PI staining based flow cytometry (reference value: 5.02 %); assay type: functional
[30] = target: Myc proto-oncogene protein (Homo sapiens) (UniProt P01106); experiment: Inhibition of c-Myc transcriptional activity (unknown origin) at 10 uM by luciferase reporter gene assay
NCI-H1299 = experiment: Cytotoxicity against human NCI-H1299 cells assessed as inhibition of cell viability incubated for 48 hrs by CCK8 assay; assay type: functional, cell-based; settings: NCI-H1299, 48 h
[31] = target: Myc proto-oncogene protein (Homo sapiens) (UniProt P01106); experiment: Inhibition of c-Myc in human NCI-H1299 cells by Western blot analysis; assay type: cell-based; settings: dose <= 10.0 µM
A549 [32] = experiment: Induction of apoptosis in human A549 cells assessed as necrotic cells at 5 uM incubated for 48 hrs by Annexin V-FITC/PI staining based flow cytometry (reference value: 1.41 %); assay type: functional
A549 [33] = experiment: Induction of apoptosis in human A549 cells assessed as activation of caspase-3 cleavage at 2.5 to 10 uM incubated for 48 hrs by Western blot analysis; assay type: functional, cell-based; settings: dose 2.5-10 µM
[34] = Toxicity in C57BL/6 mouse allografted with mouse Lewis lung carcinoma cells assessed as pathological damage in kidneys at 20 mg/kg, ip administered every two days for 28 days by H and E staining based analysis; assay type: organism-based, Kidney; settings: in vivo, 672 h, time 28 day
A549 [35] = experiment: Induction of apoptosis in human A549 cells assessed as necrotic cells at 10 uM incubated for 48 hrs by Annexin V-FITC/PI staining based flow cytometry (reference value: 1.41 %); assay type: functional
[36] = target: Myc proto-oncogene protein (Homo sapiens) (UniProt P01106); experiment: Inhibition of c-Myc in human A549 cells assessed as decrease in half life at 10 uM pretreated for 12 hrs followed by CHX treatment for 1 to 2 hrs by Western blot analysis; assay type: cell-based; settings: time 13-14 hrs
A549 [37] = experiment: Induction of apoptosis in human A549 cells assessed as late apoptotic cells at 5 uM incubated for 48 hrs by Annexin V-FITC/PI staining based flow cytometry (reference value: 5.79 %); assay type: functional
Lewis lung carcinoma = experiment: In vivo inhibition of c-Myc in mouse Lewis lung carcinoma cells allografted in C57BL/6 mouse at 20 to 40 mg/kg, ip administered every two days for 28 days by Western blot analysis; assay type: functional, organism-based; settings: dose 20-40 mg/kg, time 28.0 day

Myc proto-oncogene protein (Homo sapiens), sequence (P01106 whole entry): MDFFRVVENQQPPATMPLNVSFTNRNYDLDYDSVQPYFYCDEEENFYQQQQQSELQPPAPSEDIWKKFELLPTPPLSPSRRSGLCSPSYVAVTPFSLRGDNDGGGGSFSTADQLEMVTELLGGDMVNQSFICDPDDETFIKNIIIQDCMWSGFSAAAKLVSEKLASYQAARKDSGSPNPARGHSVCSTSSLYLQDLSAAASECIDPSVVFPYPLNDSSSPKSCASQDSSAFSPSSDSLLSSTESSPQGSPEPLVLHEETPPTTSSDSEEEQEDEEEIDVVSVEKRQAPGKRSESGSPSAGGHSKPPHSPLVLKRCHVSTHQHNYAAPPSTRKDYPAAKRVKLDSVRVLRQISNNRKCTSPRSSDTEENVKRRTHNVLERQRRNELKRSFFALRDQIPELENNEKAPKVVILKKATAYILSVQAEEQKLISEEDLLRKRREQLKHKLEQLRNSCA
c-Myc/c-Max (Homo sapiens), sequence (P01106 whole entry): as above
c-Myc/c-Max (Homo sapiens), sequence (P61244 2-160 partner limits assumed): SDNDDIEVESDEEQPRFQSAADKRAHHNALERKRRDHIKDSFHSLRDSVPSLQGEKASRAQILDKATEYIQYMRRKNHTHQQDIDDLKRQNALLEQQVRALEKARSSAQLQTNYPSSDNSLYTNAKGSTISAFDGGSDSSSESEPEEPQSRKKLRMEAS

c1ccc2c(c1)nc(-c1cc(-c3ccc(N4CCOCC4)cc3)on1)n2CCN1CCCCC1
Activity (A549 [1]): Active | Activity [2]: Active | inhibition in vivo at 40 mg/kg [3]: 76.4% | inhibition in vivo at 20 mg/kg [4]: 59.9% | Activity (A549 [5]): inactive | Activity (A549 [6]): Active | Activity (A549 [7]): 37.8% | Activity [8]: Non-toxic | Activity (A549 [9]): 18.7% | Activity [10]: Non-toxic | viability at 5 µM (A549 [11]): 68.3% | Activity (A549 [12]): Active | Activity [13]: Non-toxic | inhibition [14]: Dose-dependent-effect | inhibition [15]: inactive | Activity (A549 [16]): 8.46% | inhibition [17]: Active | Activity (A549 [18]): 2.76% | Activity (A549 [19]): 27% | IC50 (A549 [20]): 4.08 µM | viability at 2.5 µM (A549 [21]): 70.1% | viability at 10 µM (A549 [22]): 26.1% | viability at 48 h, 20 µM [23]: > 90% | Activity (A549 [24]): Active | Activity (A549 [25]): Dose-dependent-effect | Activity (A549 [26]): 33% | Activity [27]: Non-toxic | Activity [28]: Non-toxic | Activity (A549 [29]): 9.5% | inhibition [30]: Active | IC50 (NCI-H1299): 7.86 µM | inhibition [31]: Dose-dependent-effect | Activity (A549 [32]): 2.63% | Activity (A549 [33]): Active | Activity [34]: Non-toxic | Activity (A549 [35]): 3.05% | inhibition [36]: Active | Activity (A549 [37]): 19.6% | inhibition (Lewis lung carcinoma): Active
